{"source": "paper PMC5218480", "about": "(PLoS ONE, 2017)", "system": "MV-4-11 cells", "assay": "Gene expression microarray analysis (Affymetrix PrimeView) and GSEA", "format": "cell-based, human", "set-up": "RFU PODN (11730768_x_at) / Fold change /veh PODN (11730768_x_at) / RFU LINC00158 (11744669_a_at) / Fold change /veh LINC00158 (11744669_a_at) / RFU DUSP10 (11751237_a_at) / Fold change /veh DUSP10 (11751237_a_at) / RFU ID3 (11757404_x_at) / Fold change /veh ID3 (11757404_x_at) / RFU PLEKHG5 (11737974_s_at) / Fold change /veh PLEKHG5 (11737974_s_at) / RFU LRRC4B (11730491_at) / Fold change /veh LRRC4B (11730491_at) / RFU GIMAP4 (11747438_a_at) / Fold change /veh GIMAP4 (11747438_a_at) / RFU KRT8 (11758183_x_at) / Fold change /veh KRT8 (11758183_x_at) / RFU CNN1 (11734310_a_at) / Fold change /veh CNN1 (11734310_a_at) / RFU VPS37D (11726825_at) / Fold change /veh VPS37D (11726825_at) / RFU C10orf10 (11716522_x_at) / Fold change /veh C10orf10 (11716522_x_at) / RFU KIR2DL2 /// KIR2DL4 /// KIR2DL5A /// KIR2DL5B /// KIR2DS1 /// KIR2DS2 /// KIR2DS3 /// KIR2DS4 /// KIR3DL3 /// KIR3DL3 /// KIR3DS1 (11738374_at) / Fold change /veh KIR2DL2 /// KIR2DL4 /// KIR2DL5A /// KIR2DL5B /// KIR2DS1 /// KIR2DS2 /// KIR2DS3 /// KIR2DS4 /// KIR3DL3 /// KIR3DL3 /// KIR3DS1 (11738374_at) / RFU C1QL1 (11718748_at) / Fold change /veh C1QL1 (11718748_at) / RFU TMPRSS4 (11747572_a_at) / Fold change /veh TMPRSS4 (11747572_a_at) / RFU HAMP (11756126_x_at) / Fold change /veh HAMP (11756126_x_at) / RFU RNFT2 (11725882_a_at) / Fold change /veh RNFT2 (11725882_a_at) / RFU NR4A2 (11747474_a_at) / Fold change /veh NR4A2 (11747474_a_at) / RFU ABCC12 (11746883_a_at) / Fold change /veh ABCC12 (11746883_a_at) / RFU TMEM136 (11760407_x_at) / Fold change /veh TMEM136 (11760407_x_at) / RFU CLDN22 /// WWC2 (11732394_at) / Fold change /veh CLDN22 /// WWC2 (11732394_at) / RFU HLA-DPB1 (11760878_x_at) / Fold change /veh HLA-DPB1 (11760878_x_at) / RFU SPINT1 (11716480_a_at) / Fold change /veh SPINT1 (11716480_a_at) / RFU GAP43 (11754022_s_at) / Fold change /veh GAP43 (11754022_s_at) / RFU A4GNT (11735810_at) / Fold change /veh A4GNT (11735810_at) / RFU PRB3 (11715151_x_at) / Fold change /veh PRB3 (11715151_x_at) / RFU TUBB4B (11761932_at) / Fold change /veh TUBB4B (11761932_at) / RFU CAPN14 (11732068_a_at) / Fold change /veh CAPN14 (11732068_a_at) / RFU TMCC2 (11721928_a_at) / Fold change /veh TMCC2 (11721928_a_at) / RFU IRGQ (11745062_a_at) / Fold change /veh IRGQ (11745062_a_at) / RFU FAM174B (11720279_a_at) / Fold change /veh FAM174B (11720279_a_at) / RFU TMPRSS4 (11748680_a_at) / Fold change /veh TMPRSS4 (11748680_a_at) / RFU FAM212B (11763350_a_at) / Fold change /veh FAM212B (11763350_a_at) / RFU PLEKHG5 (11743358_a_at) / Fold change /veh PLEKHG5 (11743358_a_at) / RFU ZSCAN30 (11745921_a_at) / Fold change /veh ZSCAN30 (11745921_a_at) / RFU CMKLR1 (11741424_a_at) / Fold change /veh CMKLR1 (11741424_a_at) / RFU LOC101060620 /// MAPK8IP1 (11723275_at) / Fold change /veh LOC101060620 /// MAPK8IP1 (11723275_at) / RFU SPTSSB (11747773_x_at) / Fold change /veh SPTSSB (11747773_x_at) / RFU PRSS12 (11739890_at) / Fold change /veh PRSS12 (11739890_at) / RFU BIN1 (11741810_x_at) / Fold change /veh BIN1 (11741810_x_at) / RFU WNT11 (11732464_a_at) / Fold change /veh WNT11 (11732464_a_at) / RFU C10orf10 (11716521_a_at) / Fold change /veh C10orf10 (11716521_a_at) / RFU C5orf56 (11738089_at) / Fold change /veh C5orf56 (11738089_at) / RFU CYB561 (11721691_x_at) / Fold change /veh CYB561 (11721691_x_at) / RFU ANKRD19P (11752326_a_at) / Fold change /veh ANKRD19P (11752326_a_at) / RFU OR2T12 /// OR2T33 /// OR2T8 (11738714_s_at) / Fold change /veh OR2T12 /// OR2T33 /// OR2T8 (11738714_s_at) / RFU VCAN (11748164_a_at) / Fold change /veh VCAN (11748164_a_at) / RFU JSRP1 (11732532_at) / Fold change /veh JSRP1 (11732532_at) / RFU KRTAP10-11 (11738290_x_at) / Fold change /veh KRTAP10-11 (11738290_x_at) / RFU MYO3A (11730013_a_at) / Fold change /veh MYO3A (11730013_a_at) / RFU EBF3 (11725865_a_at) / Fold change /veh EBF3 (11725865_a_at) / RFU CAMK2N1 (11719241_x_at) / Fold change /veh CAMK2N1 (11719241_x_at) / RFU C5orf56 (11738088_a_at) / Fold change /veh C5orf56 (11738088_a_at) / RFU OLFML3 (11715873_a_at) / Fold change /veh OLFML3 (11715873_a_at) / RFU LOC100653217 /// NTM (11731650_a_at) / Fold change /veh LOC100653217 /// NTM (11731650_a_at) / RFU MAPK11 (11762145_a_at) / Fold change /veh MAPK11 (11762145_a_at) / RFU FIZ1 (11724087_x_at) / Fold change /veh FIZ1 (11724087_x_at) / RFU OASL (11726364_x_at) / Fold change /veh OASL (11726364_x_at) / RFU SOX15 (11748057_x_at) / Fold change /veh SOX15 (11748057_x_at) / RFU CD79A (11719716_a_at) / Fold change /veh CD79A (11719716_a_at) / RFU HIST1H1D (11736915_at) / Fold change /veh HIST1H1D (11736915_at) / RFU CASKIN2 (11723855_a_at) / Fold change /veh CASKIN2 (11723855_a_at) / RFU LOC730098 (11760151_x_at) / Fold change /veh LOC730098 (11760151_x_at) / RFU OR4N2 (11742367_at) / Fold change /veh OR4N2 (11742367_at) / RFU PRRT2 (11749266_a_at) / Fold change /veh PRRT2 (11749266_a_at) / RFU SNX32 (11753110_a_at) / Fold change /veh SNX32 (11753110_a_at) / RFU CDHR5 (11726645_a_at) / Fold change /veh CDHR5 (11726645_a_at) / RFU RCAN1 (11760418_a_at) / Fold change /veh RCAN1 (11760418_a_at) / RFU FAM167A (11723789_a_at) / Fold change /veh FAM167A (11723789_a_at) / RFU FAM26E (11764081_at) / Fold change /veh FAM26E (11764081_at) / RFU ISYNA1 (11749810_s_at) / Fold change /veh ISYNA1 (11749810_s_at) / RFU ACY1 (11761880_at) / Fold change /veh ACY1 (11761880_at) / RFU 11764098_at / Fold change /veh 11764098_at / RFU SAMD14 (11745864_x_at) / Fold change /veh SAMD14 (11745864_x_at) / RFU NPB (11741838_a_at) / Fold change /veh NPB (11741838_a_at) / RFU TMPRSS6 (11731388_a_at) / Fold change /veh TMPRSS6 (11731388_a_at) / RFU KRTAP10-2 (11738614_at) / Fold change /veh KRTAP10-2 (11738614_at) / RFU ARHGAP8 /// PRR5-ARHGAP8 (11727945_x_at) / Fold change /veh ARHGAP8 /// PRR5-ARHGAP8 (11727945_x_at) / RFU KRTAP5-7 /// NADSYN1 (11734609_at) / Fold change /veh KRTAP5-7 /// NADSYN1 (11734609_at) / RFU RASL12 (11751679_a_at) / Fold change /veh RASL12 (11751679_a_at) / RFU CDKN2B (11736163_a_at) / Fold change /veh CDKN2B (11736163_a_at) / RFU PRF1 (11729649_at) / Fold change /veh PRF1 (11729649_at) / RFU, ZNF638 /// ZNF638-IT1 / Fold change vs veh, ZNF638 /// ZNF638-IT1 / RFU, PANK3 / Fold change vs veh, PANK3 / RFU, SH3YL1 / Fold change vs veh, SH3YL1 / RFU, ZEB2 / Fold change vs veh, ZEB2 / RFU, NRIP1 / Fold change vs veh, NRIP1 / RFU, PTTG1IP / Fold change vs veh, PTTG1IP / RFU, CAPN2 / Fold change vs veh, CAPN2 / RFU, MED14 / Fold change vs veh, MED14 / RFU, SNORA58 / Fold change vs veh, SNORA58 / RFU, C1orf63 / Fold change vs veh, C1orf63 / RFU, LRRFIP1 / Fold change vs veh, LRRFIP1 / RFU, NDUFAF7 / Fold change vs veh, NDUFAF7 / RFU, SLC12A2 / Fold change vs veh, SLC12A2 / RFU, IBTK / Fold change vs veh, IBTK / RFU, ESF1 / Fold change vs veh, ESF1 / Fold change vs veh, TMEM50B / RFU, TAOK1 / Fold change vs veh, TAOK1 / RFU, ACBD3 / Fold change vs veh, ACBD3 / RFU, TMA16 / Fold change vs veh, TMA16 / RFU, RWDD3 / Fold change vs veh, RWDD3 / RFU, BCAT1 / Fold change vs veh, BCAT1 / RFU, EDEM3 / Fold change vs veh, EDEM3 / RFU, TMEM33 / Fold change vs veh, TMEM33 / RFU, WDR75 / Fold change vs veh, WDR75 / RFU, AHCTF1 / Fold change vs veh, AHCTF1 / RFU, TFRC / Fold change vs veh, TFRC / RFU, ZDHHC17 / Fold change vs veh, ZDHHC17 / RFU, NOM1 / Fold change vs veh, NOM1 / RFU, ARL8B / Fold change vs veh, ARL8B / RFU, ZBTB11 / Fold change vs veh, ZBTB11 / RFU, TAMM41 / Fold change vs veh, TAMM41 / RFU, KIAA1704 /// LOC100996395 / Fold change vs veh, KIAA1704 /// LOC100996395 / RFU, ING1 / Fold change vs veh, ING1 / RFU, TRMT61B / Fold change vs veh, TRMT61B / RFU, FUBP3 / Fold change vs veh, FUBP3 / RFU, TP53 / Fold change vs veh, TP53 / RFU, TNKS2 / Fold change vs veh, TNKS2 / RFU, ZFP14 / Fold change vs veh, ZFP14 / RFU, ACTR2 / Fold change vs veh, ACTR2 / RFU, PPP3R1 / Fold change vs veh, PPP3R1 / RFU, PIK3R1 / Fold change vs veh, PIK3R1 / RFU, HNRNPA1 / Fold change vs veh, HNRNPA1 / RFU, RNF170 / Fold change vs veh, RNF170 / RFU, ZNF28 / Fold change vs veh, ZNF28 / RFU, RNGTT / Fold change vs veh, RNGTT / RFU, OGT / Fold change vs veh, OGT / RFU, BRD1 / Fold change vs veh, BRD1 / RFU, MARS / Fold change vs veh, MARS / RFU, ZNF655 / Fold change vs veh, ZNF655 / RFU, FAHD1 / Fold change vs veh, FAHD1 / RFU, BDP1 / Fold change vs veh, BDP1 / RFU, LRRCC1 / Fold change vs veh, LRRCC1 / RFU, ARID1A / Fold change vs veh, ARID1A / RFU, ZNF146 / Fold change vs veh, ZNF146 / RFU, ZNF330 / Fold change vs veh, ZNF330 / RFU, GPN3 / Fold change vs veh, GPN3 / RFU, C9orf123 / Fold change vs veh, C9orf123 / RFU, N4BP2L2 / Fold change vs veh, N4BP2L2 / RFU, ARFIP1 / Fold change vs veh, ARFIP1 / RFU, FAM179B / Fold change vs veh, FAM179B / RFU, BCL10 / Fold change vs veh, BCL10 / RFU, UHRF1BP1L / Fold change vs veh, UHRF1BP1L / RFU, BET1 / Fold change vs veh, BET1 / RFU, CNOT2 / Fold change vs veh, CNOT2 / RFU, ZNF268 / Fold change vs veh, ZNF268 / Fold change vs veh, ZNF507 / RFU, DGCR2 / Fold change vs veh, DGCR2 / RFU, WDSUB1 / Fold change vs veh, WDSUB1 / Fold change vs veh, HSP90B1 /// MIR3652 / RFU, ADSS / Fold change vs veh, ADSS / RFU, GK / Fold change vs veh, GK / RFU, ZNF148 / Fold change vs veh, ZNF148 / RFU, TAF9 / Fold change vs veh, TAF9 / RFU, SLC1A5 / Fold change vs veh, SLC1A5 / RFU, SLMO2 / Fold change vs veh, SLMO2 / RFU, ABCC4 / Fold change vs veh, ABCC4 / RFU, LOC101060439 /// RAP1B / Fold change vs veh, LOC101060439 /// RAP1B / RFU, RFX7 / Fold change vs veh, RFX7 / RFU, GTPBP10 / Fold change vs veh, GTPBP10 / RFU, CNEP1R1 / Fold change vs veh, CNEP1R1 / RFU, BIVM-ERCC5 /// ERCC5 / Fold change vs veh, BIVM-ERCC5 /// ERCC5 / RFU, ILF3 / Fold change vs veh, ILF3 / RFU 11762660_at / Fold change /veh 11762660_at / RFU VCAN (11757783_s_at) / Fold change /veh VCAN (11757783_s_at) / RFU DDX43 (11728927_at) / Fold change /veh DDX43 (11728927_at) / RFU KRT8 (11758188_x_at) / Fold change /veh KRT8 (11758188_x_at) / RFU NKD1 (11759106_at) / Fold change /veh NKD1 (11759106_at) / RFU SRD5A1 (11742802_a_at) / Fold change /veh SRD5A1 (11742802_a_at) / RFU TPSAB1 /// TPSB2 (11721975_s_at) / Fold change /veh TPSAB1 /// TPSB2 (11721975_s_at) / RFU GSTM3 (11746129_a_at) / Fold change /veh GSTM3 (11746129_a_at) / RFU IL23R (11737362_x_at) / Fold change /veh IL23R (11737362_x_at) / RFU TMEM51 (11727254_a_at) / Fold change /veh TMEM51 (11727254_a_at) / RFU PIWIL2 (11732686_x_at) / Fold change /veh PIWIL2 (11732686_x_at) / RFU ORM1 (11744905_x_at) / Fold change /veh ORM1 (11744905_x_at) / RFU CCDC152 (11743942_at) / Fold change /veh CCDC152 (11743942_at) / RFU ECM1 (11717891_a_at) / Fold change /veh ECM1 (11717891_a_at) / RFU IL23R (11748794_a_at) / Fold change /veh IL23R (11748794_a_at) / RFU TNFAIP8L3 (11732012_x_at) / Fold change /veh TNFAIP8L3 (11732012_x_at) / RFU MBOAT4 (11741988_at) / Fold change /veh MBOAT4 (11741988_at) / RFU 11764193_at / Fold change /veh 11764193_at / RFU TMEM53 (11763286_at) / Fold change /veh TMEM53 (11763286_at) / RFU MAGEB2 (11727129_at) / Fold change /veh MAGEB2 (11727129_at) / RFU TMEM200A (11744735_a_at) / Fold change /veh TMEM200A (11744735_a_at) / RFU CCDC152 (11751479_a_at) / Fold change /veh CCDC152 (11751479_a_at) / RFU FAM211A (11726209_a_at) / Fold change /veh FAM211A (11726209_a_at) / RFU RGS16 (11746705_a_at) / Fold change /veh RGS16 (11746705_a_at) / RFU VCAN (11755009_s_at) / Fold change /veh VCAN (11755009_s_at) / RFU RHOB (11743442_s_at) / Fold change /veh RHOB (11743442_s_at) / RFU RGS16 (11720943_a_at) / Fold change /veh RGS16 (11720943_a_at) / RFU RGS16 (11720944_at) / Fold change /veh RGS16 (11720944_at) / RFU, VPS4B / Fold change vs veh, VPS4B / RFU, CREB1 / Fold change vs veh, CREB1 / RFU, DNAJC13 / Fold change vs veh, DNAJC13 / RFU, GNAQ / Fold change vs veh, GNAQ / RFU, CDK5R1 / Fold change vs veh, CDK5R1 / RFU, ZRANB3 / Fold change vs veh, ZRANB3 / RFU, CUL4A / Fold change vs veh, CUL4A / RFU, CCNY / Fold change vs veh, CCNY / RFU, UFL1 / Fold change vs veh, UFL1 / RFU, COG3 / Fold change vs veh, COG3 / RFU, DIAPH2 / Fold change vs veh, DIAPH2 / RFU, SKA2 / Fold change vs veh, SKA2 / RFU, AFF3 / Fold change vs veh, AFF3 / RFU, LMF1 / Fold change vs veh, LMF1 / RFU, IPO11 / Fold change vs veh, IPO11 / RFU, DFFB / Fold change vs veh, DFFB / RFU, FOXP1 / Fold change vs veh, FOXP1 / RFU, CARD8 / Fold change vs veh, CARD8 / RFU, STRN3 / Fold change vs veh, STRN3 / RFU, ADK / Fold change vs veh, ADK / RFU, RASSF2 / Fold change vs veh, RASSF2 / RFU, WIPF1 / Fold change vs veh, WIPF1 / RFU, LARP1B / Fold change vs veh, LARP1B / RFU, RASA1 / Fold change vs veh, RASA1 / RFU, RB1 / Fold change vs veh, RB1 / RFU, PPFIA1 / Fold change vs veh, PPFIA1 / RFU, MAT2A / Fold change vs veh, MAT2A / RFU, CCT5 / Fold change vs veh, CCT5 / RFU, WDR92 / Fold change vs veh, WDR92 / RFU, CUX1 / Fold change vs veh, CUX1 / RFU, TTC7A / Fold change vs veh, TTC7A / RFU, TMEM135 / Fold change vs veh, TMEM135 / RFU, DEPTOR / Fold change vs veh, DEPTOR / RFU, CPM / Fold change vs veh, CPM / RFU, DNAJB6 / Fold change vs veh, DNAJB6 / RFU, CACNA2D3 / Fold change vs veh, CACNA2D3 / RFU, DTX4 / Fold change vs veh, DTX4 / RFU, TFCP2 / Fold change vs veh, TFCP2 / RFU, GMCL1 /// GMCL1P1 / Fold change vs veh, GMCL1 /// GMCL1P1 / RFU, AEBP2 / Fold change vs veh, AEBP2 / RFU, SNHG1 /// SNORD22 /// SNORD25 /// SNORD26 /// SNORD27 /// SNORD28 /// SNORD29 /// SNORD31 / Fold change vs veh, SNHG1 /// SNORD22 /// SNORD25 /// SNORD26 /// SNORD27 /// SNORD28 /// SNORD29 /// SNORD31 / Fold change (Aza/veh), C12orf56 (ProbeSet 11735607_a_at) / Fold change (ACY-1035/veh), C12orf56 (ProbeSet 11735607_a_at) / Fold change (Aza/veh), FGFR1OP (ProbeSet 11751329_s_at) / Fold change (ACY-1035/veh), FGFR1OP (ProbeSet 11751329_s_at) / Fold change (Aza/veh), VPS36 (ProbeSet 11739960_a_at) / Fold change (ACY-1035/veh), VPS36 (ProbeSet 11739960_a_at) / RFU SYPL1 (11715823_x_at) / Fold change /veh SYPL1 (11715823_x_at) / RFU IGFBP7 (11715501_s_at) / Fold change /veh IGFBP7 (11715501_s_at) / RFU REEP3 (11722064_at) / Fold change /veh REEP3 (11722064_at) / RFU IGLL1 (11728026_x_at) / Fold change /veh IGLL1 (11728026_x_at): dose or concentration left out as unconfirmed", "details": "ProbeSet 11749781_s_at; LIST B"}
{"molecule": "Nc1ccc(-c2cccs2)cc1NC(=O)c1ccc2c(c1)cc(C1CC1)n2CCN1CCOCC1", "note": "[ACY-1035]", "values": [{"measurement": "Fold change vs veh, BCAT1", "value": 0.87}]}
